Laboratory results taken from PMC3914206.

Legend:
Assay in all cases: KiNativ chemical proteomics profiling in HeLa and PC3 cell lysates
Format in all cases: binding
[1] = target: T1, selected panels of kinases in HeLa and PC3 cell lysates (Homo sapiens, UniProt P25098); conditions: 10 uM; proteome HEL; peptide DLk[…]; labeling site Lys2
T1 construct: endogenous in cells; host or cells: HeLa and PC3 cell lysates

[2] = target: T2, selected panels of kinases in HeLa and PC3 cell lysates (Homo sapiens, UniProt P15056); conditions: 10 uM; proteome HEL; peptide DLk[…]; labeling site Lys2
T2 construct: endogenous in cells; host or cells: HeLa and PC3 cell lysates

[3] = target: T3, selected panels of kinases in HeLa and PC3 cell lysates (Homo sapiens, UniProt O15111); conditions: 10 uM; proteome HEL; peptide DLk[…]; labeling site Lys2
T3 construct: endogenous in cells; host or cells: HeLa and PC3 cell lysates

[4] = target: T4, selected panels of kinases in HeLa and PC3 cell lysates (Homo sapiens, UniProt Q96SB4); conditions: 10 uM; SRPK1; peptide IIHTDIk[…]; proteome PC3; labeling site Lys2
T4 construct: endogenous in cells; host or cells: HeLa and PC3 cell lysates

[5] = target: T5, selected panels of kinases in HeLa and PC3 cell lysates (Homo sapiens, UniProt Q9Y2U5); conditions: 10 uM, proteome PC3, labeling site Lys1
T5 construct: endogenous in cells; host or cells: HeLa and PC3 cell lysates
T5 sequence (Q9Y2U5 1-619): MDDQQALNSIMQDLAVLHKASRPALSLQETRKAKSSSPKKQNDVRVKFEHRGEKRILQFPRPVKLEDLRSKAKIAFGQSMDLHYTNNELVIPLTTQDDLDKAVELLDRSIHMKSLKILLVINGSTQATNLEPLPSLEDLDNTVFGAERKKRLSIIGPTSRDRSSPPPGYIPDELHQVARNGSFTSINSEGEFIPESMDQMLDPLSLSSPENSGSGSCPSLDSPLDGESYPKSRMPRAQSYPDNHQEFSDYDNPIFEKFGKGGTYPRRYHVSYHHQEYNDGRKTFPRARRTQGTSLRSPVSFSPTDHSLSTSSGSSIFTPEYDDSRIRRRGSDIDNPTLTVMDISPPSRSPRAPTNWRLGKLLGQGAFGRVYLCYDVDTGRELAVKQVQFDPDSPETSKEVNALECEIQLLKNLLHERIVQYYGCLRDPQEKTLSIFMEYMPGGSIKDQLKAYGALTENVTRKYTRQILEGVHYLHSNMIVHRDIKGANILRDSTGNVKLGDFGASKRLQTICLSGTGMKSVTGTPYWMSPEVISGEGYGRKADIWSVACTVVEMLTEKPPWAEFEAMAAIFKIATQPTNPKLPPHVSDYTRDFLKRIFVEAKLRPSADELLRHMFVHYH

[6] = target: T6, selected panels of kinases in HeLa and PC3 cell lysates (Homo sapiens, UniProt P78527); conditions: 10 uM, labeling site ATP
T6 construct: endogenous in cells; host or cells: HeLa and PC3 cell lysates

[7] = target: T7, selected panels of kinases in HeLa and PC3 cell lysates (Homo sapiens, UniProt P23443); conditions: 10 uM, peptide DLk[…], labeling site Lys2; for % Inhibition p70S6K: proteome PC3; for % Inhibiton, p70S6K: proteome HEL
T7 construct: endogenous in cells; host or cells: HeLa and PC3 cell lysates

[8] = target: T8, selected panels of kinases in HeLa and PC3 cell lysates (Homo sapiens, UniProt O14757); conditions: 10 uM; proteome HEL; peptide DIkPENLLLDER; labeling site Lys2
T8 construct: endogenous in cells; host or cells: HeLa and PC3 cell lysates

[9] = target: T9, selected panels of kinases in HeLa and PC3 cell lysates (Homo sapiens, UniProt Q15131); conditions: 10 uM; proteome PC3; peptide DLkVSNLLMTDK; labeling site Lys2
T9 construct: endogenous in cells; host or cells: HeLa and PC3 cell lysates

[10] = target: T10, selected panels of kinases in HeLa and PC3 cell lysates (Homo sapiens, UniProt P41240); conditions: 10 uM, peptide VSDFGLTk[…], labeling site Activation Loop
T10 construct: endogenous in cells; host or cells: HeLa and PC3 cell lysates

[11] = target: T11, selected panels of kinases in HeLa and PC3 cell lysates (Homo sapiens, UniProt P23743); conditions: 10 uM; proteome HEL; peptide […]kSGGK; labeling site ATP
T11 construct: endogenous in cells; host or cells: HeLa and PC3 cell lysates

[12] = target: T12, selected panels of kinases in HeLa and PC3 cell lysates (Homo sapiens, UniProt Q96PY6); conditions: 10 uM; proteome HEL; peptide DIkSQNIFLTK; labeling site Lys2
T12 construct: endogenous in cells; host or cells: HeLa and PC3 cell lysates

[13] = target: T13, selected panels of kinases in HeLa and PC3 cell lysates (Homo sapiens, UniProt O60674); conditions: 10 uM; proteome HEL; peptide IGDFGLTk[…]; labeling site Activation Loop
T13 construct: endogenous in cells; host or cells: HeLa and PC3 cell lysates

[14] = target: T14, selected panels of kinases in HeLa and PC3 cell lysates (Homo sapiens, UniProt Q9UBF8); conditions: 10 uM, PI4KB, peptide […]kDK, labeling site ATP
T14 construct: endogenous in cells; host or cells: HeLa and PC3 cell lysates

[15] = target: T15, selected panels of kinases in HeLa and PC3 cell lysates (Homo sapiens, UniProt O75460); conditions: 10 uM; proteome HEL; peptide DLk[…]; labeling site Lys2
T15 construct: endogenous in cells; host or cells: HeLa and PC3 cell lysates

[16] = target: T16, selected panels of kinases in HeLa and PC3 cell lysates (Homo sapiens, UniProt O15530); conditions: 10 uM; PDK1; peptide EYAIkILEK; proteome PC3; labeling site Lys1
T16 construct: endogenous in cells; host or cells: HeLa and PC3 cell lysates

[17] = target: T17, selected panels of kinases in HeLa and PC3 cell lysates (Homo sapiens, UniProt O94921); conditions: 10 uM; PFTAIRE1; peptide LVALkVIR; proteome PC3; labeling site Lys1
T17 construct: endogenous in cells; host or cells: HeLa and PC3 cell lysates

T14 sequence (Q9UBF8 whole entry): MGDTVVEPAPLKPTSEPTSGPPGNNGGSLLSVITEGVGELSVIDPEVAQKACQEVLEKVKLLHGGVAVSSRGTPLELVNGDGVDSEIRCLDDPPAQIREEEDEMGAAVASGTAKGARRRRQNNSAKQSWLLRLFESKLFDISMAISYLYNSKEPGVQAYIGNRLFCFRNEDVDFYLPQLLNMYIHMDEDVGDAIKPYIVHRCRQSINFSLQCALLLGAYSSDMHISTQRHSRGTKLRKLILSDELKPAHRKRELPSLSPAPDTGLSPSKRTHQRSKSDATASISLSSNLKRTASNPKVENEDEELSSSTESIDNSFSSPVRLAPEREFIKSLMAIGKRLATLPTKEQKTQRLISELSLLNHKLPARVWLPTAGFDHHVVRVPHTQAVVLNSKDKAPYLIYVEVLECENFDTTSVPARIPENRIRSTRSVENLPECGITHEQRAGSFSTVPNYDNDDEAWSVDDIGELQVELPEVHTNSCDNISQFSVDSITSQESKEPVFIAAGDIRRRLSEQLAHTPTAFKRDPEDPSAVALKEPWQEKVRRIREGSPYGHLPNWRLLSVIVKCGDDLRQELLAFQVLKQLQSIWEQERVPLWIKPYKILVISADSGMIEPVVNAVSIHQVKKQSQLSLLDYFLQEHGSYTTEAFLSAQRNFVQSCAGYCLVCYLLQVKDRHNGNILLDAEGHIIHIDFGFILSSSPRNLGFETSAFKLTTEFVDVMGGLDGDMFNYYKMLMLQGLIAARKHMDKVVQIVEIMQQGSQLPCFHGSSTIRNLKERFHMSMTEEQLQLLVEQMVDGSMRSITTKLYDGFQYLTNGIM
T6 sequence (P78527 whole entry): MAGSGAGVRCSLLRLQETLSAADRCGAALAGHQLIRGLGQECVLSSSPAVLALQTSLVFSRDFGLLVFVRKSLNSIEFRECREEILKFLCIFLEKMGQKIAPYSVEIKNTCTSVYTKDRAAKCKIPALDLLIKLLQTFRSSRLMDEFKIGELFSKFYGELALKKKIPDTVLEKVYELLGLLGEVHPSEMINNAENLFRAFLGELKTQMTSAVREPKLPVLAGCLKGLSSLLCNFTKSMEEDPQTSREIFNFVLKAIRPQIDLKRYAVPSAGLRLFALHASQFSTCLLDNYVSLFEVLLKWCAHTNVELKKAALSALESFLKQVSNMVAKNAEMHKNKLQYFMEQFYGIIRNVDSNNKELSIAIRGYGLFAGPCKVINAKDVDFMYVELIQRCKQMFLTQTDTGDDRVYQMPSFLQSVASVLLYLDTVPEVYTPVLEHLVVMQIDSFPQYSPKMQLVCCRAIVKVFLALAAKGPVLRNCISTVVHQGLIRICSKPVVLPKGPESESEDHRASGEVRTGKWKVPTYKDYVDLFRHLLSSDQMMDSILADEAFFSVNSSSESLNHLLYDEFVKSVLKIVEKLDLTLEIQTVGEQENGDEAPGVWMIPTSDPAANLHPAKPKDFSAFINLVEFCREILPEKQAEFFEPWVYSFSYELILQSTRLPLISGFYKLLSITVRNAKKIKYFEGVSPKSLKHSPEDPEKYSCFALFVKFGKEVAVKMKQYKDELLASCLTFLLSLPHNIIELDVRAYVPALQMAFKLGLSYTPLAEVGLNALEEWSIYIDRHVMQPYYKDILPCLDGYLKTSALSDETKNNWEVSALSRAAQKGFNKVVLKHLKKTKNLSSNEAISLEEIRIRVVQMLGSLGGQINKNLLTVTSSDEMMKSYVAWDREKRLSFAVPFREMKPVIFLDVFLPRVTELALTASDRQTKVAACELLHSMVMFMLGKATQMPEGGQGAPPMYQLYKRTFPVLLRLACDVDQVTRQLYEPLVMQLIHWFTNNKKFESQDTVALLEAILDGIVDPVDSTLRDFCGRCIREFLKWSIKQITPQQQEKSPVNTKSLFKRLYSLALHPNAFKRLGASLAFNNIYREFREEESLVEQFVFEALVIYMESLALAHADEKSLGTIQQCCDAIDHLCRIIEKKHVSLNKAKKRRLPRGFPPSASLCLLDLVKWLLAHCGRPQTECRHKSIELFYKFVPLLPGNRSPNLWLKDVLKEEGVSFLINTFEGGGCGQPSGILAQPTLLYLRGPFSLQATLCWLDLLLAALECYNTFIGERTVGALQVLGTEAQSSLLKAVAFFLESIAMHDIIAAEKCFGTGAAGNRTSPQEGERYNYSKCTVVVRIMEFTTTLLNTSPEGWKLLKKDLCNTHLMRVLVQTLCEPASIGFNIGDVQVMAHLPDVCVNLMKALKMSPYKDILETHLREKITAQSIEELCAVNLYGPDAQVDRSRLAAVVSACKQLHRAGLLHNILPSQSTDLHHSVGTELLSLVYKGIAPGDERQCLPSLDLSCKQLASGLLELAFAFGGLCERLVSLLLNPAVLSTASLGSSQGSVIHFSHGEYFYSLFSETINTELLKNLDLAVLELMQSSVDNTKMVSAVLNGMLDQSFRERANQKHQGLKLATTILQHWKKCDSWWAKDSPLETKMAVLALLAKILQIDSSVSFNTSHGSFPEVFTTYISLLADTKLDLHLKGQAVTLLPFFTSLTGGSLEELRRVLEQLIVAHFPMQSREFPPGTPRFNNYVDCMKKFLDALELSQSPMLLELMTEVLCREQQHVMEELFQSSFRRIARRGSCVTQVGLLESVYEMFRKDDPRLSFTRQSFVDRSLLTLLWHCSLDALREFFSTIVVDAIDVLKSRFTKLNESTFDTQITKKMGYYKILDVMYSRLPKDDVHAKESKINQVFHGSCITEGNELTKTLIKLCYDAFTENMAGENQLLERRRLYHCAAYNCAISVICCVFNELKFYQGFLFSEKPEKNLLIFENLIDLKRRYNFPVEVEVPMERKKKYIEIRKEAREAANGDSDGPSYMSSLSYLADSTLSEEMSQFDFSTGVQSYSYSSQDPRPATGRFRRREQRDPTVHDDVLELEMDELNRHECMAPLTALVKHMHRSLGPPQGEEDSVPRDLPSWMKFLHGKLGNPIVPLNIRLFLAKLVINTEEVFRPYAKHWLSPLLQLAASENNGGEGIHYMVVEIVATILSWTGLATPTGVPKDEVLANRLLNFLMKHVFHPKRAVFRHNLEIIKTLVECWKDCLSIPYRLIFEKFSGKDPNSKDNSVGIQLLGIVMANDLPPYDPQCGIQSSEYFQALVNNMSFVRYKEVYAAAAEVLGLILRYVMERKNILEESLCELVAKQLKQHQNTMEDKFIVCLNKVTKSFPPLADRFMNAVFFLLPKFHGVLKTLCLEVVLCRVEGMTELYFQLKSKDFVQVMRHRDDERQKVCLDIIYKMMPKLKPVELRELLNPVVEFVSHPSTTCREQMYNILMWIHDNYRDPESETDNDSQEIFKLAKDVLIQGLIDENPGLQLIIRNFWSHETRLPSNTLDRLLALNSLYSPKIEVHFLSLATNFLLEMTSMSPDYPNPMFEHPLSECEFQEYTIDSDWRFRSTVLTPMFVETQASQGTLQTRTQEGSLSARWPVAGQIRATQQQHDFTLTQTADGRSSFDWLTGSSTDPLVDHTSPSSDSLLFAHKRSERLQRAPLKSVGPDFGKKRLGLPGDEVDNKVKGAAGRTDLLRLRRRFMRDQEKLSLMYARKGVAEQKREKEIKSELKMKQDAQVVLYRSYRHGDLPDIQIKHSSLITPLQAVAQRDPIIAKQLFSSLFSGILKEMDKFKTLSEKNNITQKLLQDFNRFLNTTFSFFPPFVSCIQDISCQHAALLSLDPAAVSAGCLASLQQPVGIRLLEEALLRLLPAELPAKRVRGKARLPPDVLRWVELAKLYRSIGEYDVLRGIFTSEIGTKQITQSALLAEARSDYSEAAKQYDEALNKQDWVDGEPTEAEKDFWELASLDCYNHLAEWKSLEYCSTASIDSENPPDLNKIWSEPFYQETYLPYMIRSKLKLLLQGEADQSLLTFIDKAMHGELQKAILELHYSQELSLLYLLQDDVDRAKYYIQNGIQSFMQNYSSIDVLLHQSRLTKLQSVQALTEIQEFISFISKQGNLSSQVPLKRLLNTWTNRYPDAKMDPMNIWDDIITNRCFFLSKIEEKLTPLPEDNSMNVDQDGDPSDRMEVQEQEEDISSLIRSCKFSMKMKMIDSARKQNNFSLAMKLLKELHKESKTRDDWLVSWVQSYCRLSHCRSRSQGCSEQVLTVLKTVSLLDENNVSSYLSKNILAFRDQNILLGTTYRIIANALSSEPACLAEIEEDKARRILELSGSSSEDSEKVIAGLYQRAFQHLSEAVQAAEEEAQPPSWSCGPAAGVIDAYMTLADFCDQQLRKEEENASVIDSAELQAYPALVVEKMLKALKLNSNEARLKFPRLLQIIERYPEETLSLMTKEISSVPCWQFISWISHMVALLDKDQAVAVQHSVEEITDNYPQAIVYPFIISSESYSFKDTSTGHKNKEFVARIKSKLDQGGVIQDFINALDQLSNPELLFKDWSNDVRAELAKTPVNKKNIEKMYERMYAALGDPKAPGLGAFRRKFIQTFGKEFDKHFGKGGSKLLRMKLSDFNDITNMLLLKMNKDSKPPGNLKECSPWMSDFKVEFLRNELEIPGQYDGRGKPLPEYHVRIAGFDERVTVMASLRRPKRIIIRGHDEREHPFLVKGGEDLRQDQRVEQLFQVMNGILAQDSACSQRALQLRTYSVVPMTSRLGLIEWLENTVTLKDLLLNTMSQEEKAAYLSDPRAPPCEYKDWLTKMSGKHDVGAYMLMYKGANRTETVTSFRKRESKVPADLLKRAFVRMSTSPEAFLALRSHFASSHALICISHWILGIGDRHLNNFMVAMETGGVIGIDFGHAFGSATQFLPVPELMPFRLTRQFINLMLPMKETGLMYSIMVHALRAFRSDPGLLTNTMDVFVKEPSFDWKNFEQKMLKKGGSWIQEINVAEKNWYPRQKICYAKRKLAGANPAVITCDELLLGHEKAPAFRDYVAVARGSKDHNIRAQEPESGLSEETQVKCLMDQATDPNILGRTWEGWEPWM

Structure (SMILES) | % Inhibiton, BARK1 [1] [%] | % Inhibiton, BRAF [2] [%] | % Inhibiton, IKKa [3] [%] | % Inhibition SRPK1 [4] [%] | % Inhibiton, MAP3K2 ([5]; peptide ELAVk[…]) [%] | % Inhibiton, MAP3K2 ([5]; peptide […]k[…]) [%] | % Inhibiton, DNAPK ([6]; proteome HEL, peptide […]k[…]) [%] | % Inhibiton, DNAPK ([6]; proteome PC3, peptide […]k[…]) [%] | % Inhibiton, DNAPK ([6]; proteome PC3, peptide k[…]) [%] | % Inhibition p70S6K [7] [%] | % Inhibiton, p70S6K [7] [%] | % Inhibiton, CHK1 [8] [%] | % Inhibiton, CDK10 [9] [%] | % Inhibiton, CSK ([10]; proteome HEL) [%] | % Inhibiton, CSK ([10]; proteome PC3) [%] | % Inhibiton, DGKA [11] [%] | % Inhibiton, NEK1 [12] [%] | % Inhibiton, JAK2 domain2 [13] [%] | % Inhibition PI4KB ([14]; proteome HEL) [%] | % Inhibition PI4KB ([14]; proteome PC3) [%] | further results
COc1cc(C(=O)N2CCC(N3CCN(C)CC3)CC2)ccc1Nc1ncc2c(n1)N(C1CCCC1)c1ccccc1C(=O)N2C [Compound 25, 11-cyclopentyl-2-((2-methoxy-4-(4-(4-methylpiperazin-1-yl)piperidine-1-carbonyl)phenyl)amino)-5-methyl-5H-benzo[e]pyrimido[5,4-b][1,4]diazepin-6(11H)-one] | 12.0 | -0.2 | 5.3 | -29.3 | 15.5 | 23.7 | 2.3 | -16.3 | -9.9 | 3.9 | 16.9 | -12.3 | -11.0 | 6.5 | -4.8 | 8.1 | 14.7 | -9.0 | -21.6 | -6.1 | % Inhibiton, IRE1 [15]: -1.8%; % Inhibition PDK1 [16]: -5.4%; % Inhibition PFTAIRE1 [17]: -9.7%
CCOc1cc(C(=O)N2CCC(N3CCN(C)CC3)CC2)ccc1Nc1ncc2c(n1)N(C1CCCC1)c1ccccc1C(=O)N2C [Compound 26] | 10.9 | 8.6 | -5.9 | -25 | -11.2 | -12.3 | 2.3 | 10.1 | 23.8 | 10 | -24.4 | 13.8 | 10.4 | 14.3 | -6.9 | 5.7 | 3 | 6.5 | -1.9 | 3.6 | % Inhibiton, IRE1 [15]: -19%; % Inhibition PDK1 [16]: 0%; % Inhibition PFTAIRE1 [17]: -14.3%
